Reference: PMC12174528 (Asian Pacific Journal of Cancer Prevention : APJCP, 2025)
Values after ≈ are worked out from the molar mass of the structure shown.

How the values were obtained:
[1] = system: normal human diploid fibroblasts; details: cited from earlier work
[2] = system: MCF-7 cancer cell line; experiment: Cell viability assay; type: cell-based; details: Homo sapiens, MCF7, 24 h, read-out: IC50 (cytotoxicity, SRB assay)
[3] = system: MCF-7 colony formation; experiment: Cell proliferation; type: cell-based, human; details: MCF-7, treated with IC50, 5 days; negative control 100%
[4] = system: MCF-7 cell migration; experiment: Cell migration; type: cell-based, human; details: for migration area at 24 hours: MCF-7, treated with IC50, 24 hours, negative control 44.02%

Compound | toxic effects on normal human diploid fibroblasts [1] | IC50 [2] | colony formation relative to the negative control [3] | migration area at 24 hours [4] | migration area at 48 hours ([4]; MCF-7, treated with IC50, 48 hours, negative control 53.99%)
C[C@@H]1O[C@@H](O[C@@H]2[C@@H](O)[C@H](OCCc3ccc(O)c(O)c3)O[C@H](CO)[C@H]2OC(=O)/C=C/c2ccc(O)c(O)c2)[C@H](O)[C@H](O)[C@H]1O [ACT, Acteoside] | no toxic effects | 135 µg/mL (≈ 216 µM) | 39.7% | 14.38% | –
C[C@H]1c2cccc(O)c2C(=O)C2=C(O)[C@]3(O)C(=O)C(C(N)=O)=C(O)[C@@H](N(C)C)[C@@H]3[C@@H](O)[C@@H]21 [DOX, doxycycline] | – | 343 µg/mL (≈ 773 µM) | 35.56% | 6.8% | -16.50%
